Structures can show the parent of a compound that is named as a salt.

The subject of one test is PRKACA-PRKAR2A interaction (SmBiT-PRKACA / LgBiT-PRKAR2A), protein kinase A. Details: NanoLuc complementation counter-screen in cell extract, PRKACA with PRKAR2A, loss of luminescence, detects NanoLuc interference. The conditions noted are these: 0.5 h, 20 µM; inhibitor.
With `C/C=C/c1ccc2c(c1)OCO2` [UM0133473:02, Isosafrole], the “Inh (PKA)” value came out at 2.424%.

The same test, now with this note: counter-screen for NanoLuc interference, 0.5 h, 20 µM, inhibitor, Inh (PKA).
For `CCOC(=O)C1=C[C@@H](OC(CC)CC)[C@H](NC(C)=O)[C@@H](N)C1` [UM0133352:02, Oseltamivir phosphate], the “Inh (PKA)” value is recorded as -0.5287%.

For `O=c1c(O)c(-c2ccc(O)c(O)c2)oc2cc(O)cc(O)c12` [UM0133552:02, Quercetin dihydrate], the “Inh (PKA)” value is listed as 33.9%.

Take `O=c1c(O)c(-c2ccc(O)c(O)c2)oc2cc(O)cc(O)c12` [UM0133552:03, Quercetin]: the “Inh (PKA)” value was 26.1%.

On to `O=C(O)/C=C/c1ccc(Cn2ccnc2)cc1` [UM0134313:02, Ozagrel HCl], for which the “Inh (PKA)” value is -0.66%.

The test is the same for the next values; noted with them: counter-screen for NanoLuc interference; 0.5 h, 20 µM; inhibitor.
Regarding `O=C(N/N=C/c1ccc([N+](=O)[O-])o1)c1ccc(O)cc1` [UM0133346:02, Nifuroxazide], the “Inh (PKA)” value amounted to 17.08%.

Regarding `O=C1CCc2ccc(OCCCCN3CCN(c4cccc(Cl)c4Cl)CC3)cc2N1` [UM0133361:02, Aripiprazole], the “Inh (PKA)” value was determined as 19.63%.

For `CC1=C(O)C(=O)C=C2C1=CC=C1[C@@]2(C)CC[C@@]2(C)[C@@H]3C[C@](C)(C(=O)O)CC[C@]3(C)CC[C@]12C` [UM0133421:02, Celastrol], the “Inh (PKA)” value is given as 15.02%.

In the case of `Clc1ccc2c(c1)C(N1CCNCC1)=Nc1ccccc1O2` [UM0133517:02, Amoxapine], the “Inh (PKA)” value amounted to 7.389%.

With `Nc1ncn([C@@H]2O[C@H](CO)[C@@H](O)[C@H]2O)c(=O)n1` [UM0133525:02, 5-Azacytidine], the “Inh (PKA)” value was 1.069%.

For the compound `CN(Cc1cnc2nc(N)nc(N)c2n1)c1ccc(C(=O)N[C@@H](CCC(=O)O)C(=O)O)cc1` [UM0133539:02, Methotrexate], the “Inh (PKA)” value turned out to be 2.622%.

In the case of `NC(=O)N1c2ccccc2C=Cc2ccccc21` [UM0133618:02, Carbamazepine], the “Inh (PKA)” value worked out at 3.187%.

As to `NS(=O)(=O)c1cc2c(cc1Cl)N=CNS2(=O)=O` [UM0133622:02, Chlorothiazide], the “Inh (PKA)” value is reported as 0.9686%.

On to `Cc1nnc(SCC2=C(C(=O)O)N3C(=O)[C@@H](NC(=O)Cn4cnnn4)[C@H]3SC2)s1` [UM0133624:02, Cefazolin (sodium salt)], for which the “Inh (PKA)” value is on record as 0.1508%.

Turning to `CO/N=C(\C(=O)N[C@@H]1C(=O)N2C(C(=O)O)=C(COC(C)=O)CS[C@H]12)c1csc(N)n1` [UM0133637:02, Cefotaxime (sodium salt)], the “Inh (PKA)” value is reported as 1.378%.

On to `CC[C@@]1(O)C(=O)OCc2c1cc1n(c2=O)Cc2cc3ccccc3nc2-1` [UM0133648:02, Camptothecin], for which the “Inh (PKA)” value was found to be 1.997%.

Regarding `COCCOC(=O)C1=C(C)NC(C)=C(C(=O)OC/C=C/c2ccccc2)C1c1cccc([N+](=O)[O-])c1` (stereo not drawn) [UM0133650:02, Cilnidipine], the “Inh (PKA)” value was 81.64%.

On to `CCCCCCCCCCCC1=C(O)C(=O)C=C(O)C1=O` [UM0133662:02, Embelin], for which the “Inh (PKA)” value came out at 15.52%.

Take `CC(C)=CC[C@@H](O)C1=CC(=O)c2c(O)ccc(O)c2C1=O` [UM0133665:02, Shikonin]: the “Inh (PKA)” value came out at 46.09%.

Regarding `Nc1ccn([C@H]2CC[C@@H](CO)O2)c(=O)n1` [UM0133684:02, Zalcitabine], the “Inh (PKA)” value is reported as -0.04839%.

As for `CC(C)(C)NC(=O)[C@H]1CC[C@H]2[C@@H]3CC[C@H]4NC(=O)C=C[C@]4(C)[C@H]3CC[C@]12C` [UM0133719:02, Finasteride], the “Inh (PKA)” value came out at 1.602%.

As to `COCCCC/C(=N\OCCN)c1ccc(C(F)(F)F)cc1` [UM0133722:02, Fluvoxamine maleate], the “Inh (PKA)” value was determined as 2.345%.

Regarding `O=c1[nH]cc(F)c(=O)[nH]1` [UM0133724:03, Fluorouracil (Adrucil)], the “Inh (PKA)” value was found to be 1.181%.

For `O=C(/C=C/c1ccc(O)c(O)c1)OCCc1ccccc1` [UM0133732:02, Caffeic Acid Phenethyl Ester], the “Inh (PKA)” value was determined as 43.72%.

On to `C[C@H]1CCC/C=C/[C@@H]2C[C@H](O)C[C@H]2[C@H](O)/C=C/C(=O)O1` [UM0133745:02, Brefeldin A], for which the “Inh (PKA)” value stood at 1.414%.

As to `O=c1c(-c2ccc(O)cc2)coc2cc(O)cc(O)c12` [UM0133748:02, Genistein], the “Inh (PKA)” value was determined as 59.26%.

As for `CC1=C(/C=C/C(C)=C/C=C/C(C)=C\C(=O)O)C(C)(C)CCC1` [UM0133752:04, Isotretinoin], the “Inh (PKA)” value amounted to 16.35%.

On to `CC1(C)CCC2=C(O1)c1ccccc1C(=O)C2=O` [UM0133760:02, Beta-Lapachone], for which the “Inh (PKA)” value came out at 9.4%.

Turning to `CO[C@@]12[C@H](COC(N)=O)C3=C(C(=O)C(C)=C(N)C3=O)N1C[C@@H]1N[C@@H]12` [UM0133761:02, Mitomycin C], the “Inh (PKA)” value is 0.5965%.

Take `COc1cccc2c1C(=O)c1c(O)c3c(c(O)c1C2=O)C[C@@](O)(C(=O)CO)C[C@@H]3O[C@H]1C[C@H](N)[C@H](O)[C@H](C)O1` [UM0133765:03, Doxorubicin]: the “Inh (PKA)” value was 45.98%.

On to `CC1=C2C[C@H]3[C@@H](CC=C4C[C@@H](O)CC[C@@]43C)[C@@H]2CC[C@]12O[C@@H]1C[C@H](C)CN[C@H]1[C@H]2C` [UM0133766:02, Cyclopamine], for which the “Inh (PKA)” value is listed as 2.445%.

For the compound `CN1CCC(=C2c3ccccc3CC(=O)c3sccc32)CC1` [UM0133795:02, Ketotifen Fumarate], the “Inh (PKA)” value is on record as 5.692%.

For `C/C(O)=C(\C#N)C(=O)Nc1cc(Br)ccc1Br` [UM0133802:02, LFM-A13], the “Inh (PKA)” value is 54.46%.

Turning to `Cc1ccc(Cl)c(Nc2ccccc2C(=O)O)c1Cl` [UM0133818:02, Meclofenamate Sodium], the “Inh (PKA)” value was found to be 21.07%.

`Cc1[nH]c(=O)c(C#N)cc1-c1ccncc1` [UM0133819:02, Milrinone]: the “Inh (PKA)” value is listed as -0.01503%.

`O=c1cc(-c2ccc(O)cc2)oc2cc(O)cc(O)c12` [UM0133861:02, Apigenin]: the “Inh (PKA)” value is 24.67%.

Turning to `COc1ccc(-c2coc3cc(O)cc(O)c3c2=O)cc1` [UM0133867:02, Biochanin A], the “Inh (PKA)” value amounted to 69.13%.

On to `O=C(/C=C/c1ccc(O)c(O)c1)c1ccc(O)cc1O` [UM0133869:02, Butein], for which the “Inh (PKA)” value came to 52.51%.

For `O=c1cc(-c2ccc(O)c(O)c2)oc2cc(O)cc(O)c12` [UM0133934:02, Luteolin], the “Inh (PKA)” value was 25.55%.

Turning to `O=c1c(O)c(-c2cc(O)c(O)c(O)c2)oc2cc(O)cc(O)c12` [UM0133944:02, Myricetin], the “Inh (PKA)” value is given as 47.98%.

For the compound `CC1=CC(=O)c2c(O)cccc2C1=O` [UM0133960:02, Plumbagin], the “Inh (PKA)” value was 19.95%.

For the compound `C[C@H]1COC2=C1C(=O)C(=O)c1c2ccc2c1CCCC2(C)C` [UM0134017:02, Cryptotanshinone], the “Inh (PKA)” value stood at 20.28%.

Turning to `COc1c2occc2cc2ccc(=O)oc12` [UM0134068:02, 8-Methoxypsoralen], the “Inh (PKA)” value is on record as 2.167%.

With `CN1C(C(=O)Nc2ccccn2)=C(O)c2ccccc2S1(=O)=O` [UM0134086:02, Piroxicam], the “Inh (PKA)” value was determined as 4.329%.

Take `Cc1ccc(C(=O)Cn2c3c(sc2=N)CCCC3)cc1` [UM0134099:02, Pifithrin-?]: the “Inh (PKA)” value is recorded as 9.08%.

As to `Cc1nc2n(c(=O)c1CCN1CCC(c3noc4cc(F)ccc34)CC1)CCCC2` [UM0134126:02, Risperidone], the “Inh (PKA)” value stood at 4.965%.

In the case of `Clc1cccc(Cl)c1NC1=NCCN1` [UM0134172:02, Clonidine HCl], the “Inh (PKA)” value is recorded as 1.329%.

In the case of `c1ccc(CN(CC2=NCCN2)c2ccccc2)cc1` [UM0134174:02, Antazoline HCl], the “Inh (PKA)” value is recorded as 0.9494%.

Take `O=C1CN(/N=C/c2ccc(-c3ccc([N+](=O)[O-])cc3)o2)C(=O)N1` [UM0134180:02, Dantrolene, sodium salt]: the “Inh (PKA)” value is 25.72%.

Take `O=C(NCCN1CCOCC1)c1ccc(Cl)cc1` [UM0134186:02, Moclobemide (Ro 111163)]: the “Inh (PKA)” value turned out to be 0.401%.

Take `C[C@H]1O[C@@H](O[C@H]2[C@@H](O)C[C@H](O[C@H]3[C@@H](O)C[C@H](O[C@H]4CC[C@@]5(C)[C@H](CC[C@@H]6[C@@H]5C[C@@H](O)[C@]5(C)[C@@H](C7=CC(=O)OC7)CC[C@]65O)C4)O[C@@H]3C)O[C@@H]2C)C[C@H](O)[C@@H]1O` [UM0134205:02, Digoxin]: the “Inh (PKA)” value is on record as -2.961%.

As to `C[C@@H]1O[C@@H](O[C@H]2C[C@@H](O)[C@]3(CO)[C@H]4[C@H](O)C[C@]5(C)[C@@H](C6=CC(=O)OC6)CC[C@]5(O)[C@@H]4CC[C@]3(O)C2)[C@H](O)[C@H](O)[C@H]1O` [UM0134215:02, Ouabain], the “Inh (PKA)” value amounted to 0.8032%.

In the case of `CCC1=C(C)CN(C(=O)NCCc2ccc(S(=O)(=O)NC(=O)N[C@H]3CC[C@H](C)CC3)cc2)C1=O` [UM0134252:02, Glimepiride], the “Inh (PKA)” value came out at 4.382%.

`CC1(C)[C@@H](OC(=O)CCC(=O)O)CC[C@]2(C)[C@H]3C(=O)C=C4[C@@H]5C[C@@](C)(C(=O)O)CC[C@]5(C)CC[C@@]4(C)[C@]3(C)CC[C@@H]12` [UM0134288:02, Carbenoxolone disodium]: the “Inh (PKA)” value stood at 9.677%.

`C#C[C@]1(OC(C)=O)CC[C@H]2[C@@H]3CCC4=C[C@@H](OC(C)=O)CC[C@@H]4[C@H]3CC[C@@]21C` [UM0134301:02, Ethynodiol diacetate]: the “Inh (PKA)” value worked out at 16.1%.

For the compound `CC1=C(CC(=O)O)c2cc(F)ccc2/C1=C\c1ccc([S+](C)[O-])cc1` (stereo not drawn) [UM0134349:02, Sulindac], the “Inh (PKA)” value was 3.185%.

For the compound `CN(C)c1ccc(/C=C2\C(=O)Nc3ccccc32)cc1` [UM0134350:02, SU 4312], the “Inh (PKA)” value was 71.43%.

Regarding `COC[C@H]1OC(=O)c2coc3c2[C@@]1(C)C1=C(C3=O)[C@@H]2CCC(=O)[C@@]2(C)C[C@H]1OC(C)=O` [UM0134355:02, Wortmannin], the “Inh (PKA)” value is listed as 31.91%.

Consider `COc1ccc(/C=C/C(=O)Nc2ccccc2C(=O)O)cc1OC` [UM0134356:02, Tranilast], for which the “Inh (PKA)” value was 18.34%.

On to `COc1ccccc1N1CCN(CCN(C(=O)C2CCCCC2)c2ccccn2)CC1` [UM0134420:02, WAY-100635 maleate salt], for which the “Inh (PKA)” value stood at 1.248%.

The record behind these values is PMC9995496, “A screen for MeCP2-TBL1 interaction inhibitors using a luminescence-based assay” (Scientific Reports, 2023).
